Structures are written as SMILES. Starred links: 1 amine or outer side, 2 acyl side, 3 side chain; linkers in the order of their positions; H or OH if unused. Positions of bridges follow the written chain, without caps; N, C: chain ends. Non-standard residues stand in square brackets, D forms with d. Residues, ends and D or L forms follow the SMILES beside them. *: point of attachment. Phe(4-COOH) = N[C@@H](Cc1ccc(C(=O)O)cc1)C(=O)O; Bip = N[C@@H](Cc1ccc(-c2ccccc2)cc1)C(=O)O; Phe(3-OMe) = COc1cccc(C[C@H](N)C(=O)O)c1; Phe(3-F) = N[C@@H](Cc1cccc(F)c1)C(=O)O; Phe(3-Me) = Cc1cccc(C[C@H](N)C(=O)O)c1; X2 = O=C([C@H]1COCCN1[*:1])[*:2]; dHyp = O=C(O)[C@H]1C[C@H](O)CN1; dTic = O=C(O)[C@H]1Cc2ccccc2CN1; Carboxymethyl = O=C(O)C*; NMeA = CN[C@@H](C)C(=O)O; Ac3c = NC1(C(=O)O)CC1; Sar = CNCC(=O)O

The term IC50 denotes the concentration at which inhibition is half-maximal.

T1 sequence (Q15116 25-288): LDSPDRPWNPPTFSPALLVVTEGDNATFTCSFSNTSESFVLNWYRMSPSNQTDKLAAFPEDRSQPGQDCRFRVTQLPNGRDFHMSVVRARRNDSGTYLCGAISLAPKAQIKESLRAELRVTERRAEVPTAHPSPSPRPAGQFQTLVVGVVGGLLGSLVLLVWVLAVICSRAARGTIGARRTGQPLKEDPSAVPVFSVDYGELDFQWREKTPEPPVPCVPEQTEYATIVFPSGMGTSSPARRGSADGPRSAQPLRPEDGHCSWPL

This experiment addresses T1, human PD-1 (Jurkat-PD-1 cells) / PE-labeled human PD-L1-Ig (Homo sapiens, UniProt Q15116).
T1 construct: expressed in transfected cells; host or cells: Jurkat cell line over-expressing human PD-1
Kind of experiment: Jurkat-PD-1 Cell Binding High-Content Screening Assay (CBA); Jurkat hPD1-PDL1 assay. The conditions noted are these: Jurkat cell line over-expressing human PD-1; PE-labeled PD-L1-Ig 20 nM final; compound incubated 2 hours at 37° C.; read-out: Jurkat HPD1-PDL1 IC50. On the procedure:
The ability of the compounds of formula (I) to bind to PD-1 was investigated using a Jurkat-PD-1 Cell Binding High-Content Screening Assay.
Jurkat-PD-1 Cell Binding High-Content Screening Assay (CBA)
Phycoerythrin (PE) was covalently linked to the Ig epitope tag of human PD-L1-Ig and fluorescently-labeled PD-L1-Ig was used for binding studies with a Jurkat cell line over-expressing human PD-1 (Jurkat-PD-1). Briefly, 8×10^3 Jurkat-hPD-1 cells were seeded into 384 well plates in 20 μL of DMEM supplemented with 10% fetal calf serum. 100 nL of compound was added to cells followed by incubation at 37° C. for 2 hours. Then, 5 μL of PE-labeled PD-L1-Ig (20 nM final), diluted in DMEM supplemented with 10% fetal calf serum. […] Data was collected and processed using a Cell Insight NXT High Content Imager and associated software.
Take `CC(C)C[C@@H]1NC(=O)[C@H](Cc2c[nH]c3ccccc23)NC(=O)[C@H](CC(=O)O)NC(=O)[C@H](Cc2ccc(O)cc2)NC(=O)[C@H](Cc2ccccc2)NC(=O)CSC[C@@H](C(=O)N[C@@H](C)C(N)=O)NC(=O)[C@H](CO)NC(=O)[C@H](C(C)C)NC(=O)[C@H](CC(C)C)NC(=O)[C@H](CC(N)=O)NC(=O)[C@H]2COCCN2C(=O)[C@H](C)N(C)C(=O)[C@H](C(C)C)NC(=O)[C@H](Cc2ccc(-c3ccccc3)cc2)NC1=O` [Example 1044] ({CH2CO}-FYDWL[Bip]V[NMeA][X2]NLVSCA-NH2; thioether N-14): the IC50 turned out to be 80 nM.
For `CC(C)C[C@@H]1NC(=O)[C@H](Cc2c[nH]c3ccccc23)NC(=O)[C@H](CC(=O)O)NC(=O)[C@H](Cc2ccc(C(=O)O)cc2)NC(=O)[C@H](Cc2cnc[nH]2)NC(=O)CSC[C@@H](C(=O)N[C@@H](C)C(N)=O)NC(=O)[C@H](CO)NC(=O)[C@H](C(C)C)NC(=O)[C@H](CC(C)C)NC(=O)[C@H](CC(N)=O)NC(=O)[C@H]2CCCN2C(=O)[C@H](C)N(C)C(=O)[C@H](C(C)C)NC(=O)[C@H](Cc2ccc(-c3ccccc3)cc2)NC1=O` [Example 1046] ({CH2CO}-H[Phe(4-COOH)]DWL[Bip]V[NMeA][dP]NLVSCA-NH2; thioether N-14) the value was 80 nM; for `CC(C)C[C@@H]1NC(=O)[C@H](Cc2c[nH]c3ccccc23)NC(=O)[C@H](CC(=O)O)NC(=O)[C@H](Cc2cccc(F)c2)NC(=O)[C@H](Cc2ccccc2)NC(=O)CSC[C@@H](C(=O)N[C@@H](C)C(N)=O)NC(=O)[C@H](CO)NC(=O)[C@H](C(C)C)NC(=O)[C@H](CC(C)C)NC(=O)[C@H](CC(N)=O)NC(=O)[C@H]2CCCN2C(=O)[C@H](C)N(C)C(=O)[C@H](C(C)C)NC(=O)[C@H](Cc2ccc(-c3ccccc3)cc2)NC1=O` [Example 1047] ({CH2CO}-F[Phe(3-F)]DWL[Bip]V[NMeA][dP]NLVSCA-NH2; thioether N-14), 90 nM.
For `CC(C)C[C@@H]1NC(=O)[C@H](Cc2c[nH]c3ccccc23)NC(=O)[C@H](CC(=O)O)NC(=O)[C@H](Cc2ccc(O)cc2)NC(=O)[C@H](Cc2ccccc2)NC(=O)CSC[C@@H](C(=O)N[C@@H](C)C(N)=O)NC(=O)[C@H](CO)NC(=O)[C@H](C(C)C)NC(=O)[C@H](CC(C)C)NC(=O)[C@H](CC(N)=O)NC(=O)[C@H]2Cc3ccccc3CN2C(=O)[C@H](C)N(C)C(=O)[C@H](C(C)C)NC(=O)[C@H](Cc2ccc(-c3ccccc3)cc2)NC1=O` [Example 1049] ({CH2CO}-FYDWL[Bip]V[NMeA][dTic]NLVSCA-NH2; thioether N-14) the value was 90 nM; for `CC(C)C[C@@H]1NC(=O)[C@H](Cc2c[nH]c3ccccc23)NC(=O)[C@H](CC(=O)O)NC(=O)[C@H](Cc2ccc(O)cc2)NC(=O)[C@H](Cc2ccccc2)NC(=O)CSC[C@@H](C(=O)N[C@@H](C)C(N)=O)NC(=O)[C@H]([C@@H](C)O)NC(=O)[C@H](C(C)C)NC(=O)[C@H](CC(C)C)NC(=O)[C@H](CC(N)=O)NC(=O)[C@H]2CCCN2C(=O)[C@H](C)N(C)C(=O)[C@H](C(C)C)NC(=O)[C@H](Cc2ccc(-c3ccccc3)cc2)NC1=O` [Example 1050] ({CH2CO}-FYDWL[Bip]V[NMeA][dP]NLVTCA-NH2; thioether N-14), 110 nM; for `CC(C)C[C@@H]1NC(=O)[C@H](Cc2c[nH]c3ccccc23)NC(=O)[C@H](CC(=O)O)NC(=O)[C@H](Cc2ccc(O)cc2)NC(=O)[C@H](Cc2ccccc2)NC(=O)CSC[C@@H](C(=O)NCC(N)=O)NC(=O)[C@H](CO)NC(=O)[C@H](C(C)C)NC(=O)[C@H](CC(C)C)NC(=O)[C@H](CCCCN)NC(=O)CN(C)C(=O)[C@H](C)N(C)C(=O)[C@H](C(C)C)NC(=O)[C@H](Cc2ccc(-c3ccccc3)cc2)NC1=O` [Example 1051] ({CH2CO}-FYDWL[Bip]V[NMeA][Sar]KLVSCG-NH2; thioether N-14), 110 nM.
For `CC(C)C[C@@H]1NC(=O)[C@H](Cc2c[nH]c3ccccc23)NC(=O)[C@H](CC(=O)O)NC(=O)[C@H](Cc2ccc(OCC(=O)O)cc2)NC(=O)[C@H](Cc2cnc[nH]2)NC(=O)CSC[C@@H](C(=O)N[C@@H](C)C(N)=O)NC(=O)[C@H](CO)NC(=O)[C@H](C(C)C)NC(=O)[C@H](CC(C)C)NC(=O)[C@H](CC(N)=O)NC(=O)[C@H]2CCCN2C(=O)[C@H](C)N(C)C(=O)[C@H](C(C)C)NC(=O)[C@H](Cc2ccc(-c3ccccc3)cc2)NC1=O` [Example 1052] ({CH2CO}-HY(Carboxymethyl)DWL[Bip]V[NMeA][dP]NLVSCA-NH2; thioether N-14) the value was 120 nM; for `Cc1cccc(C[C@@H]2NC(=O)[C@H](CC(=O)O)NC(=O)[C@H](Cc3ccc(O)cc3)NC(=O)[C@H](Cc3ccccc3)NC(=O)CSC[C@@H](C(=O)N[C@@H](C)C(N)=O)NC(=O)[C@H](CO)NC(=O)[C@H](C(C)C)NC(=O)[C@H](CC(C)C)NC(=O)[C@H](CC(N)=O)NC(=O)CN(C)C(=O)[C@H](C)N(C)C(=O)[C@H](C(C)C)NC(=O)[C@H](Cc3ccc(-c4ccccc4)cc3)NC(=O)[C@H](CC(C)C)NC2=O)c1` [Example 1053] ({CH2CO}-FYD[Phe(3-Me)]L[Bip]V[NMeA][Sar]NLVSCA-NH2; thioether N-14), 120 nM.
For `CC(C)C[C@@H]1NC(=O)[C@H](Cc2c[nH]c3ccccc23)NC(=O)[C@H](CC(=O)O)NC(=O)[C@H](Cc2ccc(O)cc2)NC(=O)[C@H](Cc2ccccc2)NC(=O)CSC[C@@H](C(=O)N[C@@H](C)C(N)=O)NC(=O)[C@H](CO)NC(=O)[C@H](C(C)C)NC(=O)[C@H](CC(C)C)NC(=O)[C@H](CC(N)=O)NC(=O)[C@H]2C[C@H](O)CN2C(=O)[C@H](C)N(C)C(=O)[C@H](C(C)C)NC(=O)[C@H](Cc2ccc(-c3ccccc3)cc2)NC1=O` [Example 1054] ({CH2CO}-FYDWL[Bip]V[NMeA][dHyp]NLVSCA-NH2; thioether N-14), the concentration for half-maximal inhibition (IC50) stood at 120 nM.
The result for `COc1cccc(C[C@@H]2NC(=O)[C@H](Cc3ccccc3)NC(=O)CSC[C@@H](C(=O)N[C@@H](C)C(N)=O)NC(=O)[C@H](CO)NC(=O)[C@H](C(C)C)NC(=O)[C@H](CC(C)C)NC(=O)[C@H](CC(N)=O)NC(=O)[C@H]3CCCN3C(=O)[C@H](C)N(C)C(=O)[C@H](C(C)C)NC(=O)[C@H](Cc3ccc(-c4ccccc4)cc3)NC(=O)[C@H](CC(C)C)NC(=O)[C@H](Cc3c[nH]c4ccccc34)NC(=O)[C@H](CC(=O)O)NC2=O)c1` [Example 1055] ({CH2CO}-F[Phe(3-OMe)]DWL[Bip]V[NMeA][dP]NLVSCA-NH2; thioether N-14) reads 120 nM.
For `CC(C)C[C@@H]1NC(=O)[C@H](Cc2c[nH]c3ccccc23)NC(=O)[C@H](CC(=O)O)NC(=O)[C@H](Cc2ccc(O)cc2)NC(=O)[C@H](Cc2ccccc2)NC(=O)CSC[C@@H](C(=O)NC2(C(N)=O)CC2)NC(=O)[C@H](CO)NC(=O)[C@H](C(C)C)NC(=O)[C@H](CC(C)C)NC(=O)[C@H](CC(N)=O)NC(=O)CN(C)C(=O)[C@H](C)N(C)C(=O)[C@H](C(C)C)NC(=O)[C@H](Cc2ccc(-c3ccccc3)cc2)NC1=O` [Example 1056] ({CH2CO}-FYDWL[Bip]V[NMeA][Sar]NLVSC[Ac3c]-NH2; thioether N-14) the value was 130 nM.

(Values after patent publication US20240360178A1, “MACROCYCLIC IMMUNOMODULATORS” (Bristol-Myers Squibb Company, priority 2021, published 2024).)
